What was measured:
Type in all cases: in vivo
[1] = system: transplanted Oryza sativa; assay: Test Example 1: effect on crop, application before weed generation in submerged conditions; details: Seventeenth Table; for a: transplanted Oryza sativa (effect on crop grade): Application herbicide amount 320 g/ha
Method in brief: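 Pre-emergence application to water surface of submerged pots (4 cm depth, alluvial soil) on sowing day, with 2.5-leaf rice transplanted; emulsion diluted to g/ha rates. Grown in greenhouse at 25–30 °C; 0–5 herbicidal/crop-effect score after three weeks.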

[2] = system: Abutilon theophrasti; assay: Test Example 4: herbicidal effect by application to foliage (diluvial soil, plastic box); details: application to foliage; for M: herbicidal effect on Abutilon theophrasti: application herbicide amount 320 g/ha; for herbicidal effect, M (Abutilon theophrasti): 320 g/ha
Method in brief: (§1)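 Plants were grown in sterilized diluvial soil in a greenhouse at 25-30° C for 14 days, then sprayed on stems and leaves with water-diluted emulsion formulation at set rates in g/ha. Weed control and crop injury were scored 3 weeks after treatment on a 0-5 herbicidal-ratio scale, from 0 (≤5%) to 5 (≥90%).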

[3] = system: Amaranthus retroflexus; assay: as above; details: application to foliage; for N: herbicidal effect on Amaranthus retroflexus: application herbicide amount 320 g/ha; for herbicidal effect, N (Amaranthus retroflexus): 320 g/ha
Method in brief: as §1

[4] = system: Apera spica-venti.; assay: as above; details: application to foliage; for L: herbicidal effect on Apera spica-venti.: application herbicide amount 320 g/ha; for herbicidal effect, L (Apera spica-venti.): 320 g/ha
Method in brief: as §1

[5] = system: Avena fatua; assay: as above; details: application to foliage; for I: herbicidal effect on Avena fatua: application herbicide amount 320 g/ha; for herbicidal effect, I (Avena fatua): 320 g/ha
Method in brief: as §1

[6] = system: Chenopodium album; assay: as above; details: application to foliage; for O: herbicidal effect on Chenopodium album: application herbicide amount 320 g/ha; for herbicidal effect, O (Chenopodium album): 320 g/ha
Method in brief: as §1

[7] = system: Echinochloa crus-galli var. crus-galli; assay: as above; details: application to foliage; for H: herbicidal effect on Echinochloa crus-galli var. crus-galli: application herbicide amount 320 g/ha; for herbicidal effect, H (Echinochloa crus-galli var. crus-galli): 320 g/ha
Method in brief: as §1

[8] = system: Lolium multiflorum Lam.; assay: as above; details: application to foliage; for K: herbicidal effect on Lolium multiflorum Lam.: application herbicide amount 320 g/ha; for herbicidal effect, K (Lolium multiflorum Lam.): 320 g/ha
Method in brief: as §1

[9] = system: directly sowed Oryza sativa; assay: Test Example 3: effect on crop by application to foliage (Wagner pot, water depth 0.1-0.5 cm); details: Nineteenth Table; application to foliage; application herbicide amount 320 g/ha
Method in brief: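 Foliar spray, 14-day-old plants, emulsion diluted to target g/ha; rated 3 wk post-application, 0–5 scale (0 ≤5%, 5 ≥90% herbicidal ratio). Greenhouse 25–30 °C, alluvial soil.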

Compound	a: transplanted Oryza sativa (effect on crop grade) [1]	M: herbicidal effect on Abutilon theophrasti [2]	N: herbicidal effect on Amaranthus retroflexus [3]	L: herbicidal effect on Apera spica-venti. [4]	I: herbicidal effect on Avena fatua [5]	O: herbicidal effect on Chenopodium album [6]	H: herbicidal effect on Echinochloa crus-galli var. crus-galli [7]	K: herbicidal effect on Lolium multiflorum Lam. [8]	b (effect on crop grade) [9]	herbicidal effect, M (Abutilon theophrasti) [2]	herbicidal effect, N (Amaranthus retroflexus) [3]	herbicidal effect, L (Apera spica-venti.) [4]	herbicidal effect, I (Avena fatua) [5]	herbicidal effect, H (Echinochloa crus-galli var. crus-galli) [7]	herbicidal effect, K (Lolium multiflorum Lam.) [8]	herbicidal effect, O (Chenopodium album) [6]	a (transplanted Oryza sativa) effect on crop grade ([1]; application herbicide amount 320 g/ha)
Cc1nnc(NC(=O)c2ccc(C(F)(F)F)n3c(SC4CCCC4)nnc23)o1 [1-154]	0 (Herbicidal ratio of 5% or less (almost no effect))	2 (Herbicidal ratio of 20% or more and less than 40%)	2 (Herbicidal ratio of 20% or more and less than 40%)	0 (Herbicidal ratio of 5% or less (almost no effect))	0 (Herbicidal ratio of 5% or less (almost no effect))	5 (Herbicidal ratio of 90% or more (almost completely withered))	3 (Herbicidal ratio of 40% or more and less than 70%)	0 (Herbicidal ratio of 5% or less (almost no effect))									
O=C(Nc1nnco1)c1ccc(C(F)(F)F)n2c(SC3CCCC3)nnc12 [1-155]	0 (Herbicidal ratio of 5% or less (almost no effect))	3 (Herbicidal ratio of 40% or more and less than 70%)	3 (Herbicidal ratio of 40% or more and less than 70%)	0 (Herbicidal ratio of 5% or less (almost no effect))	0 (Herbicidal ratio of 5% or less (almost no effect))	5 (Herbicidal ratio of 90% or more (almost completely withered))	3 (Herbicidal ratio of 40% or more and less than 70%)	0 (Herbicidal ratio of 5% or less (almost no effect))									
Cc1nnc(NC(=O)c2ccc(C(F)(F)F)n3c(SCc4ccc(Cl)nc4)nnc23)o1 [1-156]	0 (Herbicidal ratio of 5% or less (almost no effect))	3 (Herbicidal ratio of 40% or more and less than 70%)	3 (Herbicidal ratio of 40% or more and less than 70%)	2 (Herbicidal ratio of 20% or more and less than 40%)	1 (Herbicidal ratio of 5% or more and less than 20%)	5 (Herbicidal ratio of 90% or more (almost completely withered))	4 (Herbicidal ratio of 70% or more and less than 90%)	1 (Herbicidal ratio of 5% or more and less than 20%)									
O=C(Nc1nnco1)c1ccc(C(F)(F)F)n2c(SCc3ccc(Cl)nc3)nnc12 [1-157]	2 (Herbicidal ratio of 20% or more and less than 40%)	3 (Herbicidal ratio of 40% or more and less than 70%)	3 (Herbicidal ratio of 40% or more and less than 70%)	1 (Herbicidal ratio of 5% or more and less than 20%)	1 (Herbicidal ratio of 5% or more and less than 20%)	5 (Herbicidal ratio of 90% or more (almost completely withered))	3 (Herbicidal ratio of 40% or more and less than 70%)	1 (Herbicidal ratio of 5% or more and less than 20%)									
COc1ccc(N(C)c2nnc3c(C(=O)Nc4nnco4)ccc(C(F)(F)F)n23)cc1 [1-171]	1 (Herbicidal ratio of 5% or more and less than 20%)	4 (Herbicidal ratio of 70% or more and less than 90%)	4 (Herbicidal ratio of 70% or more and less than 90%)	1 (Herbicidal ratio of 5% or more and less than 20%)	0 (Herbicidal ratio of 5% or less (almost no effect))	5 (Herbicidal ratio of 90% or more (almost completely withered))	5 (Herbicidal ratio of 90% or more (almost completely withered))	0 (Herbicidal ratio of 5% or less (almost no effect))	0 (Herbicidal ratio of 5% or less (almost no effect))								
CCCn1nnnc1NC(=O)c1ccc(C(F)(F)F)n2c(C(C)C)nnc12 [2-090]	4 (Herbicidal ratio of 70% or more and less than 90%)									3 (Herbicidal ratio of 40% or more and less than 70%)	4 (Herbicidal ratio of 70% or more and less than 90%)	4 (Herbicidal ratio of 70% or more and less than 90%)	4 (Herbicidal ratio of 70% or more and less than 90%)	5 (Herbicidal ratio of 90% or more (almost completely withered))	4 (Herbicidal ratio of 70% or more and less than 90%)		
C=CCn1nnnc1NC(=O)c1ccc(C(F)(F)F)n2c(C(C)C)nnc12 [2-091]	0 (Herbicidal ratio of 5% or less (almost no effect))									4 (Herbicidal ratio of 70% or more and less than 90%)	4 (Herbicidal ratio of 70% or more and less than 90%)	3 (Herbicidal ratio of 40% or more and less than 70%)	3 (Herbicidal ratio of 40% or more and less than 70%)	5 (Herbicidal ratio of 90% or more (almost completely withered))	3 (Herbicidal ratio of 40% or more and less than 70%)	5 (Herbicidal ratio of 90% or more (almost completely withered))	
CC(C)c1nnc2c(C(=O)Nc3nnnn3Cc3ccc(Cl)cc3)ccc(C(F)(F)F)n12 [2-093]	2 (Herbicidal ratio of 20% or more and less than 40%)									3 (Herbicidal ratio of 40% or more and less than 70%)	2 (Herbicidal ratio of 20% or more and less than 40%)	1 (Herbicidal ratio of 5% or more and less than 20%)	1 (Herbicidal ratio of 5% or more and less than 20%)	1 (Herbicidal ratio of 5% or more and less than 20%)	1 (Herbicidal ratio of 5% or more and less than 20%)	5 (Herbicidal ratio of 90% or more (almost completely withered))	
C#CCN(C)c1nnc2c(C(=O)Nc3nnnn3C)ccc(C(F)(F)F)n12 [2-094]	4 (Herbicidal ratio of 70% or more and less than 90%)									5 (Herbicidal ratio of 90% or more (almost completely withered))	4 (Herbicidal ratio of 70% or more and less than 90%)	3 (Herbicidal ratio of 40% or more and less than 70%)	2 (Herbicidal ratio of 20% or more and less than 40%)	5 (Herbicidal ratio of 90% or more (almost completely withered))	1 (Herbicidal ratio of 5% or more and less than 20%)	5 (Herbicidal ratio of 90% or more (almost completely withered))	
CN(CCC#N)c1nnc2c(C(=O)Nc3nnnn3C)ccc(C(F)(F)F)n12 [2-095]	5 (Herbicidal ratio of 90% or more (almost completely withered))									5 (Herbicidal ratio of 90% or more (almost completely withered))	5 (Herbicidal ratio of 90% or more (almost completely withered))	5 (Herbicidal ratio of 90% or more (almost completely withered))	4 (Herbicidal ratio of 70% or more and less than 90%)	5 (Herbicidal ratio of 90% or more (almost completely withered))	3 (Herbicidal ratio of 40% or more and less than 70%)	5 (Herbicidal ratio of 90% or more (almost completely withered))	
Cc1nnc(NC(=O)c2ccc(C(F)(F)F)n3nc(C(C)C)nc23)o1 [7-001]										1 (Herbicidal ratio of 5% or more and less than 20%)	0 (Herbicidal ratio of 5% or less (almost no effect))	0 (Herbicidal ratio of 5% or less (almost no effect))	0 (Herbicidal ratio of 5% or less (almost no effect))	1 (Herbicidal ratio of 5% or more and less than 20%)	0 (Herbicidal ratio of 5% or less (almost no effect))	2 (Herbicidal ratio of 20% or more and less than 40%)	0 (Herbicidal ratio of 5% or less (almost no effect))
